From patent US11554105B2, “Combinations of artemisinins, BCL-2 inhibitors, and kinase inhibitors for cancer treatment” (UNIVERSITY OF MARYLAND, BALTIMORE, priority 2018, dated 2023)
pIC50: −log10 of the molar value. “Also recorded” adds a separate entry of the source. Read-outs that look alike come from different tables or passages of the source. Marks after values point to notes of the source that are not given here.

Tests used:
[1] = test system: MOLM14, KOPN8 and RCH-ACV cell lines; assay: Kinase inhibitor drug combination screen, summary over the three cell lines; settings: for No. Cell Lines synergistically inhibited by drug 1 combined with AS and/or ART-838: >10% growth inhibition over the Bliss prediction, of three cell lines; for synergy with either AS or ART-838: growth inhibition of human leukemia cell lines
Procedure: Plates (3×384-well per set) contained 7 graded concentrations of each drug at 2× final concentration in culture media in 25 μl/well. […] Cells were plated such that each well contained 2500 cells (MOLM14) or 5000 cells (KOPN8 and RCH-ACV). […] Each plate contained two positive control wells used for background subtraction. Each plate also contained 45 wells without any drug. The background-subtracted absorbance for each well was normalized to the average of the no-drug wells from the corresponding vehicle plate.
Hits were ranked by the observed inhibition over the Bliss independence prediction.
Combinations with positive values for this Bliss difference were considered synergistic, values near zero, additive, and negative values, antagonistic.

[2] = test system: mitochondrial superoxide in MOLM14 cells; assay: Mitochondrial superoxide (MitoSOX Red, flow cytometry); assay type: cell-based, human; settings: 16 h; for mitochondrial superoxide generation, drug alone: 2.25× approximate 48 h IC50, MitoSox MFI; for effect of the drug on ART-838-induced superoxide: drug combined with ART-838, each at 2.25× approximate 48 h IC50; for effect of the drug on AS-induced superoxide: drug combined with AS, each at 2.25× approximate 48 h IC50
Procedure: FIGS. 4A-4D. Effects of ART-838- and AS-containing drug combinations on MOLM14 growth and superoxide generation. […] CIs were computed as described above. CI<1 indicates synergy, CI=1, additivity, CI>1, antagonism. […] Cells were then loaded with 5 μM MitoSox for 30 min, washed, and analyzed by flow cytometry for MitoSox fluorescence (indicating mitochondrial superoxide) in the FL2 channel. Mean fluorescence intensity (MFI) was normalized to that of vehicle control (0.5% DMSO) with no pretreatment (100%, lower dotted lines). Upper dotted lines show MFI of ART-838- or AS-treated cells. Error bars represent the SEM of three independent experiments.
Cells were pretreated with NAC, Tiron, DFO, or vehicle then treated with AS, ART-838, or vehicle, as described above, then following a 16-hour drug treatment, cells were loaded with 5 μM MitoSOX Red (Invitrogen, Carlsbad, Calif.) for 30 minutes at 37° C. with 5% CO2, then analyzed using the FL2 channel of an Accuri C6 flow cytometer.
As both ART-838 and AS increased mitochondrial superoxide, and many antineoplastic drugs induce ROS generation, mitochondrial superoxide levels of MOLM14 cells treated with each of the above six antileukemic drugs were evaluated, alone and in combination with ART-838 or AS. All six drugs induced mitochondrial superoxide, although to a much lesser extent than did ART-838 (FIG. 4B) or AS (FIG. 4D).

MOLM14 cells [3] = assay: Combinations of AS, ART-838 or DHA with ABT-199, ABT-263 or ABT-737 (alamarBlue, 48 h); assay type: cell-based; settings: Homo sapiens, MOLM-14; for inhibition at 0.037 µM: MOLM14
Procedure: FIG. 12. […] Then cytotoxicity was evaluated by alamarBlue assays. Each experiment was performed in triplicate.
MOLM14 or KOPN8 cells were seeded in 96-well plates as described above for alamarBlue assays. […] AlamarBlue assays were performed as described above. Each set of drugs or drug combinations was tested in triplicate. Chou-Talalay drug combination analysis was performed as above.

human AML cell lines = assay: In vitro efficacies of artemisinin derivatives against human AML cell lines; assay type: cell-based
Procedure: (§1) Cell lines were seeded in 96-well tissue culture plates at 10^4 cells per well (myeloid leukemia lines) or 2×10^4 cells per well (lymphoid leukemia lines) in culture medium, followed by addition of drugs at the indicated concentrations. 2-4 wells per plate containing media-only were included for background subtraction. Peripheral wells were filled with sterile water to minimize the effects of evaporation.
A novel trioxane dimer allyloxime-631 (ART631) has been designed to further extend in vivo T1/2 without sacrificing antimalarial activity.

in vivo = settings: NRG (NOD-Rag1null IL2rgnull), mouse, in vivo, po
Description: FIG. 24. Concentration-time profile for 2C-ARTs with PK parameters.
FIG. 25A-25C. […] NOD-Rag1^nullIL2rg^null (NRG) mice were transplanted IV with Luc-labelled MV4; 11 cells on d10. […] FIG. 25A) MTD cyclic drug treatment schema.

MOLM14 cells [4] = assay: alamarBlue cytotoxicity assay, single drugs, 48 h; assay type: cell-based; settings: Homo sapiens, MOLM-14, MOLM14, 48 h, means of at least three experiments
Procedure: Cytotoxicity was assessed using alamarBlue assays (Life Technologies, Grand Island, N.Y.; used for IC50 determinations and all drug combinations except the drug combination screen (method described separately below)) or Trypan Blue dye exclusion (Life Technologies, Grand Island, N.Y.; used for experiments using inhibitors that could interfere with alamarBlue assay performance (NAC, Tiron, DFO)).
as §1
Results were normalized to cells treated with vehicle (0.5% DMSO) alone. IC50s were calculated using CompuSyn software and represent the means of at least three experiments performed in triplicate.

[5] = test system: MOLM14-luc AML xenografts; assay: Subcutaneous MOLM14-luc xenograft growth, ARA with ART-838; assay type: in vivo, NSG mice; settings: tumor size on day 24; Ara-C 40 mg/kg/d i.p., ART-838 200 mg/kg/d p.o.
Procedure: Ara-C (40 mg/kg/d) was given i.p. on day 17, 18, 19, 20, 21 and 24. […] Mouse tumors were measured on the indicated days.
Highly immunodeficient NSG mice, obtained originally from Jackson Laboratory (Bar Harbor, Me.), were bred and housed in the UMSOM animal facilities, and handled in a laminar flow hood under aseptic conditions. […] For the human AML xenograft model, 6-12-week-old male NSG mice (>20 g) were transplanted sc with MOLM14-luc cells on day 0 and drug-treated via oral gavage, as specified in legend. Mice were monitored daily and euthanized when tumors reached an estimated mass of 2000 mg (using the formula: [length×width2]/2, assuming density=1 mg/mm3) [64].
Palpable tumors (approximately 100 mg tumor mass) appeared in mice about 2 weeks after transplantation. Mouse tumors were measured with calipers on the indicated days.

MOLM14 cells [6] = assay: Chou-Talalay drug combination analysis (alamarBlue) of AS or ART-838 with antileukemic drugs; assay type: cell-based, human; settings: simultaneous 48 h, each drug at 2.25× single-drug IC50, CI<1 synergy, =1 additivity, >1 antagonism
Procedure: For each two-drug pair, dose-response curves were generated for each drug individually and for the two drugs combined. […] This design is based on the recommendation of Chou that combination experiments be performed with drugs combined in an equipotent ratio based on their respective single-drug IC50 values. Following a 48-hour incubation with each drug or drug pair, cytotoxicity assays were performed using alamarBlue as described above.
Each set of drug combinations was tested in at least three independent experiments, each in triplicate.
Sequences are depicted at the bottom of FIG. 5.

MCL1 = assay: Western blot of MCL1 protein levels; assay type: cell-based, human; settings: acute leukemia / AML cell lines
Procedure: FIG. 22. ART631 increased ROS and CHOP levels, and reduced MCL1 protein levels. A) MOLM14 AML cells were pre-loaded with 5 mM ROS detection reagent CM-H2DCFDA for 30 m, pretreated with 11 mM for DFO for 60 m, then cultured with 200 nM ART631 or vehicle (DMSO) for 18 h and analyzed by flow cytometry. […] Protein was Western blotted as in FIG. 21. MCL1 protein levels were decreased and CHOP protein levels increased. C) From MOLM14 AML cells cultured as above, total RNA was isolated, cDNA synthesized, and SYBR Green qRT-PCR performed in triplicates. Ct values were normalized to housekeeping gene GAPDH and fold-change computed relative to vehicle control. DDIT3 mRNA (encoding CHOP protein) was increased. MV4; 11 AML and ML2 AML cell lines were tested with similar results.
(§2) To add to the efficacy of this ART838 plus ABT199 treatment regimen, rational addition of a third low-toxicity active antileukemic agent was investigated.
Many acute myeloid leukemia (AML) cell lines express MCL1±BCL2 (FIG. 21). As with other ARTs, ART631 elevates AML cellular ROS (FIG. 22A), which is reduced by the iron chelator desferrioxamine (DFO). […] Culture of AML cells with ARTs increased CHOP protein and DDIT3 mRNA (encodes CHOP) levels (FIG. 22C).

[7] = test system: acute leukemia xenografts; assay: Acute leukemia xenografts treated with ART838 two-drug combinations; assay type: in vivo; settings: compared to vehicle or single drugs
Description: as §2

MOLM14 AML xenografts = assay: Subcutaneous MOLM14 xenograft growth, SOR with AS; assay type: in vivo, NSG mice; settings: tumor size on day 24; drugs p.o.
Procedure: FIG. 15. AS enhanced in vivo efficacy of Sorafenib (SOR) against acute leukemia xenografts in NSG mice. […] Drug or vehicle were given p.o. on day 3-7, 17-21, and 31-35 when possible. Mouse tumors were measured on the indicated days.
The NSG mice were obtained, maintained and handled as described in the paragraph immediately above. AS was also formulated in Tween 80:ethanol (7:3, v:v) and diluted 1:10 in filtered deionized water immediately before administration. For the human AML xenograft model, 6-12-week-old male NSG mice (>20 g) were transplanted sc with MOLM14 cells on day 0 and drug-treated via oral gavage, as specified in legend. Mice were monitored daily and euthanized when tumors reached an estimated mass of 2000 mg as described in the paragraph immediately above.
Palpable tumors appeared about 2 weeks after transplantation.

COc1ccc(COc2ccc(Cc3cnc(N)nc3N)cc2OC)cc1 [GW-2580]
No. Cell Lines synergistically inhibited by drug 1 combined with AS and/or ART-838 [1]: 2/3

Cc1ccc(S(=O)(=O)OCC(=O)Nc2ccc(C(=O)O)c(O)c2)cc1 [S31-201]
No. Cell Lines synergistically inhibited by drug 1 combined with AS and/or ART-838 [1]: 2/3

C[C@H]1[C@H](OC(=O)CCC(=O)O)O[C@@H]2O[C@@]3(C)CC[C@H]4[C@H](C)CC[C@@H]1[C@@]24OO3 [AS, artesunate]
mitochondrial superoxide generation, drug alone [2]: induced mitochondrial superoxide generation
pIC50 (MOLM14 cells [3]; MOLM14 (AML) cell line): 6.08
pIC50 (human AML cell lines; median over the human AML cell lines tested (11 for AS and ART838, 4 for ART631), read-out: IC50 median): 5.76
pIC50 (human AML cell lines; range over the human AML cell lines tested (11 for AS and ART838, 4 for ART631), read-out: IC50 range): 5.20 to 6.10
MTD at 5 d (in vivo): 200 mg/kg/day

COc1cc([C@@H]2c3cc4c(cc3[C@@H](O[C@@H]3O[C@@H]5CO[C@@H](C)O[C@H]5[C@H](O)[C@H]3O)[C@H]3COC(=O)[C@H]23)OCO4)cc(OC)c1O [ETO, etoposide]
mitochondrial superoxide generation, drug alone [2]: induced mitochondrial superoxide generation
effect of the drug on ART-838-induced superoxide [2]: further enhanced
effect of the drug on AS-induced superoxide [2]: further enhanced
pIC50 (MOLM14 cells [4]): 6.62

CC1(C)CCC(c2ccc(Cl)cc2)=C(CN2CCN(c3ccc(C(=O)NS(=O)(=O)c4ccc(N[C@H](CCN5CCOCC5)CSc5ccccc5)c(S(=O)(=O)C(F)(F)F)c4)cc3)CC2)C1 [ABT-263, navitoclax]
synergy with either AS or ART-838 [1]: Particularly strong synergy

COc1cccc2c1C(=O)c1c(O)c3c(c(O)c1C2=O)C[C@@](O)(C(=O)CO)C[C@@H]3O[C@H]1C[C@H](N)[C@H](O)[C@H](C)O1 [DOX, doxorubicin]
mitochondrial superoxide generation, drug alone [2]: induced mitochondrial superoxide generation
effect of the drug on ART-838-induced superoxide [2]: further enhanced
effect of the drug on AS-induced superoxide [2]: further enhanced

Cn1cc(-c2ccc3nnc(C(F)(F)c4ccc5ncccc5c4)n3n2)cn1 [JNJ-38877605]
No. Cell Lines synergistically inhibited by drug 1 combined with AS and/or ART-838 [1]: 2/3

O=C(Nc1cccc(C(F)(F)F)c1)Nc1cc(S(=O)(=O)NC2CC2)ccc1-c1ccsc1 [AGI6780]
No. Cell Lines synergistically inhibited by drug 1 combined with AS and/or ART-838 [1]: 2/3**

Nc1ccn([C@@H]2O[C@H](CO)[C@@H](O)[C@@H]2O)c(=O)n1 [ARA, cytarabine]
mitochondrial superoxide generation, drug alone [2]: induced mitochondrial superoxide generation
effect of the drug on AS-induced superoxide [2]: further enhanced
pIC50 (MOLM14 cells [4]): 6.54
tumor growth inhibition, ARA plus ART-838 versus either drug alone [5]: inhibited tumor growth substantially more than did either drug alone

CN(C)CC[C@H](CSc1ccccc1)Nc1ccc(S(=O)(=O)NC(=O)c2ccc(N3CCN(Cc4ccccc4-c4ccc(Cl)cc4)CC3)cc2)cc1[N+](=O)[O-] [ABT-737]
No. Cell Lines synergistically inhibited by drug 1 combined with AS and/or ART-838 [1]: 3/3
synergy with either AS or ART-838 [1]: Particularly strong synergy

C[C@]12O[C@H](C[C@]1(O)CO)n1c3ccccc3c3c4c(c5c6ccccc6n2c5c31)CNC4=O [LES, lestaurtinib]
combination index (CI) of the drug combined with AS (MOLM14 cells [6]): 1.5

CNC(=O)c1cc(Oc2ccc(NC(=O)Nc3ccc(Cl)c(C(F)(F)F)c3)cc2)ccn1 [SOR, sorafenib]
effect of the drug on AS-induced superoxide [2]: reduced
MCL1 protein levels (MCL1): large reductions; also recorded: downregulates
leukemia xenograft growth rates, drug combined with ART838 [7]: reduced leukemia xenograft growth rates
survival, drug combined with ART838 [7]: prolonged survivals
tumor growth inhibition, AS plus SOR versus either drug alone (MOLM14 AML xenografts): inhibited tumor growth substantially more than did either drug alone

C[C@@H](Oc1cc(-c2cnn(C3CCNCC3)c2)cnc1N)c1c(Cl)ccc(F)c1Cl [Crizotinib]
No. Cell Lines synergistically inhibited by drug 1 combined with AS and/or ART-838 [1]: 2/3**

CC1(C)CCC(CN2CCN(c3ccc(C(=O)NS(=O)(=O)c4ccc(NCC5CCOCC5)c([N+](=O)[O-])c4)c(Oc4cnc5[nH]ccc5c4)c3)CC2)=C(c2ccc(Cl)cc2)C1 [ABT-199, venetoclax]
inhibition at 0.037 µM (MOLM14 cells [3]; 37 nM ABT-199 + 25 nM ART-838, read-out: growth inhibition, ABT-199 together with ART-838): 100%
inhibition at 0.037 µM (MOLM14 cells [3]; 37 nM ABT-199 + 825 nM AS, read-out: growth inhibition, ABT-199 together with AS): 100%
average inhibition over the Bliss predictions, ABT-199 plus ART-838 ([1]; average of 3/3 cell lines): 21%
average inhibition over the Bliss predictions, ABT-199 plus AS ([1]; average of 3/3 cell lines): 17%

Nc1ncnc2c1c(-c1cccc(OCc3ccccc3)c1)cn2C1CC(CN2CCCC2)C1 (stereo not shown) [NVP-ADW742]
No. Cell Lines synergistically inhibited by drug 1 combined with AS and/or ART-838 [1]: 2/3

O=S(=O)(NCCNC/C=C/c1ccc(Br)cc1)c1cccc2cnccc12 [H-89]
No. Cell Lines synergistically inhibited by drug 1 combined with AS and/or ART-838 [1]: 2/3

CCc1cc(Nc2nccc(-c3c(-c4ccc(OC)c(C(=O)Nc5c(F)cccc5F)c4)nc4ccccn34)n2)c(OC)cc1N1CCC(N2CCN(S(C)(=O)=O)CC2)CC1 [GSK-1904529A]
No. Cell Lines synergistically inhibited by drug 1 combined with AS and/or ART-838 [1]: 3/3
